Results taken from ChEMBL document CHEMBL5390204, “Persephacin Is a Broad-Spectrum Antifungal Aureobasidin Metabolite That Overcomes Intrinsic Resistance in Aspergillus fumigatus” (J Nat Prod, 2023).
Converted amounts (≈) assume the structure as drawn.

Experiments:
Candida tropicalis [1] = experiment: Antifungal activity against Candida tropicalis 13 assessed as inhibition in fungal growth incubated for 48 hrs by microplate reader analysis; format: functional
Nakaseomyces glabratus [2] = experiment: Antifungal activity against Candida glabrata 2 assessed as inhibition in fungal growth incubated for 48 hrs by microplate reader analysis; format: functional
Cryptococcus neoformans [3] = experiment: Antifungal activity against Cryptococcus neoformans H99 assessed as inhibition in fungal growth incubated for 48 hrs in presence of 10% serum by microplate reader analysis; format: functional
Candida parapsilosis [4] = experiment: Antifungal activity against Candida parapsilosis 9 assessed as inhibition in fungal growth incubated for 48 hrs by microplate reader analysis; format: functional; conditions: Lodderomyces parapsilosis
Nakaseomyces glabratus [5] = experiment: Antifungal activity against Candida glabrata 22 assessed as inhibition in fungal growth incubated for 48 hrs by microplate reader analysis; format: functional
Paecilomyces lilacinus [6] = experiment: Antifungal activity against Paecilomyces lilacinus 165E10 assessed as reduction in fungal viability incubated for 48 hrs by microplate reader analysis; format: functional, Purpureocillium lilacinum
Candida duobushaemulonii [7] = experiment: Antifungal activity against multidrug-resistant Candida duobushaemulonii 394 assessed as inhibition in fungal growth incubated for 48 hrs by microplate reader analysis; format: functional; conditions: Candidozyma duobushaemuli
Candida albicans [8] = experiment: Antifungal activity against Candida albicans SC5314 assessed as reduction in fungal viability incubated for 48 hrs by microplate reader analysis; format: functional
Candida duobushaemulonii [9] = experiment: Antifungal activity against multidrug-resistant Candida duobushaemulonii 391 assessed as inhibition in fungal growth incubated for 48 hrs by microplate reader analysis; format: functional; conditions: Candidozyma duobushaemuli
Aspergillus flavus [10] = experiment: Antifungal activity against Aspergillus flavus NRRL485 assessed as reduction in fungal viability incubated for 48 hrs by microplate reader analysis; format: functional
Rhizopus arrhizus [11] = experiment: Antifungal activity against Rhizopus oryzae FGSC 9543 assessed as reduction in fungal viability incubated for 48 hrs by microplate reader analysis; format: functional
Aspergillus fumigatus [12] = experiment: Antifungal activity against Aspergillus fumigatus NRRL5109 assessed as reduction in fungal viability incubated for 48 hrs by microplate reader analysis; format: functional
[Candida] auris [13] = Antifungal activity against multidrug-resistant Candida auris 384 assessed as inhibition in fungal growth incubated for 48 hrs by microplate reader analysis; format: functional; conditions: Candidozyma auris
Candida tropicalis [14] = experiment: Antifungal activity against Candida tropicalis ATCC750 (Y-12699) assessed as reduction in fungal viability incubated for 48 hrs by microplate reader analysis; format: functional
Candida albicans [15] = experiment: Antifungal activity against Candida albicans SC5314 assessed as inhibition in fungal growth incubated for 48 hrs in presence of 5% serum by microplate reader analysis; format: functional
Candida albicans [16] = experiment: Antifungal activity against Candida albicans SC5314 assessed as reduction in fungal growth incubated for 48 hrs by microplate reader analysis; format: functional
[Candida] auris [17] = Antifungal activity against multidrug-resistant Candida auris 388 assessed as inhibition in fungal growth incubated for 48 hrs by microplate reader analysis; format: functional; conditions: Candidozyma auris
[Candida] auris [18] = Antifungal activity against multidrug-resistant Candida auris 387 assessed as inhibition in fungal growth incubated for 48 hrs by microplate reader analysis; format: functional; conditions: Candidozyma auris
Mucor circinelloides [19] = experiment: Antifungal activity against Mucor circinelloides 235C7 assessed as reduction in fungal viability incubated for 48 hrs by microplate reader analysis; format: functional
Candida albicans [20] = experiment: Antifungal activity against Candida albicans 3 assessed as inhibition in fungal growth incubated for 48 hrs by microplate reader analysis; format: functional
Mucor circinelloides [21] = experiment: Antifungal activity against Mucor circinelloides 235C7 assessed as reduction in fungal growth incubated for 48 hrs by microplate reader analysis; format: functional
[Candida] auris [22] = Antifungal activity against multidrug-resistant Candida auris 383 assessed as inhibition in fungal growth incubated for 48 hrs by microplate reader analysis; format: functional; conditions: Candidozyma auris
Candida albicans [23] = experiment: Antifungal activity against Candida albicans 8 assessed as inhibition in fungal growth incubated for 48 hrs by microplate reader analysis; format: functional
Hamigera insecticola = experiment: Antifungal activity against Hamigera insecticola NRRL35442 assessed as reduction in fungal growth incubated for 48 hrs by microplate reader analysis; format: functional
Rhizopus arrhizus [24] = experiment: Antifungal activity against Rhizopus oryzae FGSC 9543 assessed as reduction in fungal growth incubated for 48 hrs by microplate reader analysis; format: functional
Aspergillus fumigatus [25] = experiment: Antifungal activity against Aspergillus fumigatus NRRL5109 assessed as reduction in fungal growth incubated for 48 hrs by microplate reader analysis; format: functional
[Candida] auris [26] = Antifungal activity against multidrug-resistant Candida auris 382 assessed as inhibition in fungal growth incubated for 48 hrs by microplate reader analysis; format: functional; conditions: Candidozyma auris
Aspergillus fumigatus [27] = experiment: Antifungal activity against Aspergillus fumigatus ATCC MYA-3627 assessed as inhibition in fungal growth incubated for 48 hrs in presence of 0% serum by microplate reader analysis; format: functional
Candida tropicalis [28] = experiment: Antifungal activity against Candida tropicalis ATCC750 (Y-12699) assessed as reduction in fungal growth incubated for 48 hrs by microplate reader analysis; format: functional
Pichia kudriavzevii = experiment: Antifungal activity against Candida krusei ATCC 6258 (Y-7179) assessed as reduction in fungal growth incubated for 48 hrs by microplate reader analysis; format: functional
Paecilomyces lilacinus [29] = experiment: Antifungal activity against Paecilomyces lilacinus 165E10 assessed as reduction in fungal growth incubated for 48 hrs by microplate reader analysis; format: functional; conditions: Purpureocillium lilacinum
Fusarium solani = experiment: Antifungal activity against Fusarium solani 243G2 assessed as reduction in fungal viability incubated for 48 hrs by microplate reader analysis; format: functional
Candida parapsilosis [30] = experiment: Antifungal activity against Candida parapsilosis 28 assessed as inhibition in fungal growth incubated for 48 hrs by microplate reader analysis; format: functional; conditions: Lodderomyces parapsilosis
[Candida] auris [31] = Antifungal activity against multidrug-resistant Candida auris 390 assessed as inhibition in fungal growth incubated for 48 hrs by microplate reader analysis; format: functional; conditions: Candidozyma auris
Aspergillus fumigatus [32] = experiment: Antifungal activity against Aspergillus fumigatus NRRL6113 assessed as reduction in fungal growth incubated for 48 hrs by microplate reader analysis; format: functional
Candida parapsilosis [33] = experiment: Antifungal activity against Candida parapsilosis 7 assessed as inhibition in fungal growth incubated for 48 hrs by microplate reader analysis; format: functional; conditions: Lodderomyces parapsilosis
Candida albicans [34] = experiment: Antifungal activity against Candida albicans SC5314 assessed as inhibition in fungal growth incubated for 48 hrs in presence of 0% serum by microplate reader analysis; format: functional
Nakaseomyces glabratus [35] = experiment: Antifungal activity against Candida glabrata 17 assessed as inhibition in fungal growth incubated for 48 hrs by microplate reader analysis; format: functional
Cryptococcus neoformans [36] = experiment: Antifungal activity against Cryptococcus neoformans H99 assessed as inhibition in fungal growth incubated for 48 hrs in presence of 0% serum by microplate reader analysis; format: functional
Clavispora lusitaniae = experiment: Antifungal activity against multidrug-resistant Candida lusitaniae 398 assessed as inhibition in fungal growth incubated for 48 hrs by microplate reader analysis; format: functional
Aspergillus flavus [37] = experiment: Antifungal activity against Aspergillus flavus NRRL485 assessed as reduction in fungal growth incubated for 48 hrs by microplate reader analysis; format: functional
Candida parapsilosis [38] = experiment: Antifungal activity against Candida parapsilosis 18 assessed as inhibition in fungal growth incubated for 48 hrs by microplate reader analysis; format: functional; conditions: Lodderomyces parapsilosis
Aspergillus fumigatus [39] = experiment: Antifungal activity against Aspergillus fumigatus MYA 3627 assessed as reduction in fungal viability incubated for 48 hrs by microplate reader analysis; format: functional

Work on CC[C@H](C)C[C@H](C)C[C@H](C)C[C@@H]1NC(=O)[C@H](C(C)C)N(C)C(=O)[C@@H]([C@H](C)CC)OC(=O)[C@H](C(C)(C)O)N(C)C(=O)[C@H](CC(C)C)NC(=O)[C@H](C(C)C)N(C)C(=O)[C@H]([C@H](C)CC)NC(=O)[C@@H]2CCCN2C(=O)CN(C)C1=O yielded an MIC80 (Candida tropicalis [1]) of 0.6 µM (≈ 0.645 µg/mL), an MIC80 (Nakaseomyces glabratus [2]) of 0.2 µM (≈ 0.215 µg/mL) and an MIC80 (Cryptococcus neoformans [3]) of less than 0.2 µM. The MIC80 (Candida parapsilosis [4]) was 2.5 µM (≈ 2.69 µg/mL), the MIC80 (Nakaseomyces glabratus [5]) was 0.6 µM (≈ 0.645 µg/mL) and the “MFC<=99.9” value (Paecilomyces lilacinus [6]) was greater than 10 µM. The MIC80 (Candida duobushaemulonii [7]) was 2.5 µM (≈ 2.69 µg/mL), the “MFC<=99.9” value (Candida albicans [8]) was 1.3 µM (≈ 1.4 µg/mL) and the MIC80 (Candida duobushaemulonii [9]) was 2.5 µM (≈ 2.69 µg/mL). For the same molecule, the “MFC<=99.9” value (Aspergillus flavus [10]) was greater than 10 µM, the “MFC<=99.9” value (Rhizopus arrhizus [11]) was greater than 10 µM and the “MFC<=99.9” value (Aspergillus fumigatus [12]) was 5 µM (≈ 5.38 µg/mL). For the same molecule, the MIC80 ([Candida] auris [13]) was 2.5 µM (≈ 2.69 µg/mL), the “MFC<=99.9” value (Candida tropicalis [14]) was 2.5 µM (≈ 2.69 µg/mL) and the MIC80 (Candida albicans [15]) was 0.2 µM. The MFC (Candida albicans [16]) was 1.3 µM (≈ 1.4 µg/mL), the MIC80 (Candida albicans [16]) was 0.3 µM (≈ 0.323 µg/mL) and the MIC80 ([Candida] auris [17]) was 2.5 µM (≈ 2.69 µg/mL). The MIC80 ([Candida] auris [18]) was 2.5 µM (≈ 2.69 µg/mL), the “MFC<=99.9” value (Mucor circinelloides [19]) was greater than 10 µM and the MIC80 (Candida albicans [20]) was 2.5 µM (≈ 2.69 µg/mL). For the same molecule, the MFC (Mucor circinelloides [21]) was greater than 10 µM, the MIC80 (Mucor circinelloides [21]) was greater than 10 µM and the MIC80 ([Candida] auris [22]) was 2.5 µM (≈ 2.69 µg/mL). It also gave an MIC80 (Candida albicans [23]) of 0.6 µM (≈ 0.645 µg/mL), an MFC (Hamigera insecticola) of 5 µM (≈ 5.38 µg/mL) and an MIC80 (Hamigera insecticola) of 0.6 µM (≈ 0.645 µg/mL). For the same molecule, the MFC (Rhizopus arrhizus [24]) was greater than 10 µM, the MIC80 (Rhizopus arrhizus [24]) was greater than 10 µM and the MFC (Aspergillus fumigatus [25]) was 5 µM (≈ 5.38 µg/mL). The MIC80 (Aspergillus fumigatus [25]) was 2.5 µM (≈ 2.69 µg/mL), the MIC80 ([Candida] auris [26]) was 2.5 µM (≈ 2.69 µg/mL) and the MIC80 (Aspergillus fumigatus [27]) was 2.5 µM. It also gave an MFC (Candida tropicalis [28]) of 2.5 µM (≈ 2.69 µg/mL), an MIC80 (Candida tropicalis [28]) of 1.3 µM (≈ 1.4 µg/mL) and an MFC (Pichia kudriavzevii) of 2.5 µM (≈ 2.69 µg/mL). It also gave an MIC80 (Pichia kudriavzevii) of 1.3 µM (≈ 1.4 µg/mL), an MFC (Paecilomyces lilacinus [29]) greater than 10 µM and an MIC80 (Paecilomyces lilacinus [29]) of 2.5 µM (≈ 2.69 µg/mL). The “MFC<=99.9” value (Fusarium solani) was 2.5 µM (≈ 2.69 µg/mL), the MIC80 (Candida parapsilosis [30]) was 2.5 µM (≈ 2.69 µg/mL) and the MIC80 ([Candida] auris [31]) was 2.5 µM (≈ 2.69 µg/mL). For the same molecule, the MFC (Aspergillus fumigatus [32]) was 5 µM (≈ 5.38 µg/mL), the MIC80 (Aspergillus fumigatus [32]) was 2.5 µM (≈ 2.69 µg/mL) and the MIC80 (Candida parapsilosis [33]) was 2.5 µM (≈ 2.69 µg/mL). For the same molecule, the MIC80 (Candida albicans [34]) was 0.6 µM, the MIC80 (Nakaseomyces glabratus [35]) was 0.2 µM (≈ 0.215 µg/mL) and the MIC80 (Cryptococcus neoformans [36]) was 0.6 µM. The MIC80 (Clavispora lusitaniae) was 2.5 µM (≈ 2.69 µg/mL), the MFC (Aspergillus flavus [37]) was greater than 10 µM and the MIC80 (Aspergillus flavus [37]) was 1.3 µM (≈ 1.4 µg/mL). For the same molecule, the MIC80 (Candida parapsilosis [38]) was 1.3 µM (≈ 1.4 µg/mL) and the “MFC<=99.9” value (Aspergillus fumigatus [39]) was 5 µM (≈ 5.38 µg/mL).
